The text below walks through data of the supplement of paper PMC10307832.

SMILES strings stand for the structures.

The first experiment deals with NCI-H2342. As to the kind of experiment: relative viability (nuclei count vs DMSO), 5 days (fraction); higher = more cells survive. The conditions noted are these: first compound 0.6325 µM. In a few lines: (§1)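 A single step with final 0.05% Triton X-100, 1% formaldehyde and 1 ug/ml Hoechst fixed the cells and stained nuclei 5 days after treatment. Lung cancer cell lines in 1536-well plates had been treated by pin tool the day after seeding with one drug alone or a fixed anchor-drug dose plus five library-drug doses (not always all listed) in √10 steps, and nuclei were counted on 4× images. Relative viability is the ratio of nuclei in treated wells to nuclei in vehicle wells, taken as the median of duplicate plates.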
With `COCC1(CO)C(=O)C2CCN1CC2` (stereo unspecified) [PRIMA-1MET] + Nc1ncn([C@H]2C[C@H](O)[C@@H](CO)O2)c(=O)n1 [Decitabine] (partner 2 µM), the relative viability came to 0.681.

The same experiment, now with this note: first compound 2 µM.
The compound `COCC1(CO)C(=O)C2CCN1CC2` (stereo unspecified) [PRIMA-1MET] + COc1cc2c(Oc3ccc(NC(=O)C4(C(=O)Nc5ccc(F)cc5)CC4)cc3F)ccnc2cc1OCCCN1CCOCC1 [Foretinib] (partner 0.25 µM) showed a relative viability of 0.887.

Staying with this experiment, now noted: first compound 6.325 µM.
`COCC1(CO)C(=O)C2CCN1CC2` (stereo unspecified) [PRIMA-1MET] + COc1cc2c(Oc3ccc(NC(=O)C4(C(=O)Nc5ccc(F)cc5)CC4)cc3F)ccnc2cc1OCCCN1CCOCC1 [Foretinib] (partner 0.25 µM) yielded a relative viability of 1.01.
Consider `COCC1(CO)C(=O)C2CCN1CC2` (stereo unspecified) [PRIMA-1MET] + NC(=O)Nc1cc(-c2cccc(F)c2)sc1C(=O)N[C@H]1CCCNC1 [AZD7762] (partner 0.2 µM), for which the relative viability was found to be 0.531.
`COCC1(CO)C(=O)C2CCN1CC2` (stereo unspecified) [PRIMA-1MET] + Nc1nc2[nH]cc(CCc3ccc(C(=O)N[C@@H](CCC(=O)O)C(=O)O)cc3)c2c(=O)[nH]1 [Pemetrexed] (partner 0.2 µM): the relative viability was determined as 0.691.
In turn, `COCC1(CO)C(=O)C2CCN1CC2` (stereo unspecified) [PRIMA-1MET] + CC(=O)Nc1cccc(-n2c(=O)n(C3CC3)c(=O)c3c(Nc4ccc(I)cc4F)n(C)c(=O)c(C)c32)c1 [Trametinib] (partner 0.02 µM) showed a relative viability of 0.755.
The same measure, in the same setting: the figure for `COCC1(CO)C(=O)C2CCN1CC2` (stereo unspecified) [PRIMA-1MET] + Nc1ncn([C@H]2C[C@H](O)[C@@H](CO)O2)c(=O)n1 [Decitabine] (partner 2 µM) is 0.658.

The same experiment, now with this note: first compound 20 µM.
Take `COCC1(CO)C(=O)C2CCN1CC2` (stereo unspecified) [PRIMA-1MET] + COc1cc2c(Oc3ccc(NC(=O)C4(C(=O)Nc5ccc(F)cc5)CC4)cc3F)ccnc2cc1OCCCN1CCOCC1 [Foretinib] (partner 0.25 µM): the relative viability was determined as 0.99.
On the same count and under the same terms, the value for `COCC1(CO)C(=O)C2CCN1CC2` (stereo unspecified) [PRIMA-1MET] + NC(=O)Nc1cc(-c2cccc(F)c2)sc1C(=O)N[C@H]1CCCNC1 [AZD7762] (partner 0.2 µM) was 0.41; that for `COCC1(CO)C(=O)C2CCN1CC2` (stereo unspecified) [PRIMA-1MET] + Nc1nc2[nH]cc(CCc3ccc(C(=O)N[C@@H](CCC(=O)O)C(=O)O)cc3)c2c(=O)[nH]1 [Pemetrexed] (partner 0.2 µM) was 0.753.
`COCC1(CO)C(=O)C2CCN1CC2` (stereo unspecified) [PRIMA-1MET] + CC(=O)Nc1cccc(-n2c(=O)n(C3CC3)c(=O)c3c(Nc4ccc(I)cc4F)n(C)c(=O)c(C)c32)c1 [Trametinib] (partner 0.02 µM): the relative viability was determined as 0.67.
As to `COCC1(CO)C(=O)C2CCN1CC2` (stereo unspecified) [PRIMA-1MET] + Nc1ncn([C@H]2C[C@H](O)[C@@H](CO)O2)c(=O)n1 [Decitabine] (partner 2 µM), the relative viability was 0.684.

For the next experiment, the system named is UMC-11. The description is as above. The following applies: first compound 0.2 µM. In a few lines: as §1
Consider `COCC1(CO)C(=O)C2CCN1CC2` (stereo unspecified) [PRIMA-1MET] + COc1cc2c(Oc3ccc(NC(=O)C4(C(=O)Nc5ccc(F)cc5)CC4)cc3F)ccnc2cc1OCCCN1CCOCC1 [Foretinib] (partner 0.25 µM), for which the relative viability was determined as 1.15.
In turn, `COCC1(CO)C(=O)C2CCN1CC2` (stereo unspecified) [PRIMA-1MET] + Nc1nc2[nH]cc(CCc3ccc(C(=O)N[C@@H](CCC(=O)O)C(=O)O)cc3)c2c(=O)[nH]1 [Pemetrexed] (partner 0.2 µM) registered a relative viability of 0.866.
In turn, `COCC1(CO)C(=O)C2CCN1CC2` (stereo unspecified) [PRIMA-1MET] + CC(=O)Nc1cccc(-n2c(=O)n(C3CC3)c(=O)c3c(Nc4ccc(I)cc4F)n(C)c(=O)c(C)c32)c1 [Trametinib] (partner 0.02 µM) registered a relative viability of 0.705.
`COCC1(CO)C(=O)C2CCN1CC2` (stereo unspecified) [PRIMA-1MET] + Nc1ncn([C@H]2C[C@H](O)[C@@H](CO)O2)c(=O)n1 [Decitabine] (partner 2 µM) displayed a relative viability of 0.675.

Staying with this experiment, now noted: first compound 0.6325 µM.
The compound `COCC1(CO)C(=O)C2CCN1CC2` (stereo unspecified) [PRIMA-1MET] + COc1cc2c(Oc3ccc(NC(=O)C4(C(=O)Nc5ccc(F)cc5)CC4)cc3F)ccnc2cc1OCCCN1CCOCC1 [Foretinib] (partner 0.25 µM) gave a relative viability of 0.916.
Still for that read-out and setting: the figure for `COCC1(CO)C(=O)C2CCN1CC2` (stereo unspecified) [PRIMA-1MET] + Nc1nc2[nH]cc(CCc3ccc(C(=O)N[C@@H](CCC(=O)O)C(=O)O)cc3)c2c(=O)[nH]1 [Pemetrexed] (partner 0.2 µM) is 0.693; for `COCC1(CO)C(=O)C2CCN1CC2` (stereo unspecified) [PRIMA-1MET] + CC(=O)Nc1cccc(-n2c(=O)n(C3CC3)c(=O)c3c(Nc4ccc(I)cc4F)n(C)c(=O)c(C)c32)c1 [Trametinib] (partner 0.02 µM) it is 0.569; for `COCC1(CO)C(=O)C2CCN1CC2` (stereo unspecified) [PRIMA-1MET] + Nc1ncn([C@H]2C[C@H](O)[C@@H](CO)O2)c(=O)n1 [Decitabine] (partner 2 µM) it is 0.477.

Staying with this experiment, now noted: first compound 2 µM.
For the compound `COCC1(CO)C(=O)C2CCN1CC2` (stereo unspecified) [PRIMA-1MET] + COc1cc2c(Oc3ccc(NC(=O)C4(C(=O)Nc5ccc(F)cc5)CC4)cc3F)ccnc2cc1OCCCN1CCOCC1 [Foretinib] (partner 0.25 µM), the relative viability is 0.963.
The same measure, in the same setting: the figure for `COCC1(CO)C(=O)C2CCN1CC2` (stereo unspecified) [PRIMA-1MET] + Nc1nc2[nH]cc(CCc3ccc(C(=O)N[C@@H](CCC(=O)O)C(=O)O)cc3)c2c(=O)[nH]1 [Pemetrexed] (partner 0.2 µM) is 0.836; for `COCC1(CO)C(=O)C2CCN1CC2` (stereo unspecified) [PRIMA-1MET] + CC(=O)Nc1cccc(-n2c(=O)n(C3CC3)c(=O)c3c(Nc4ccc(I)cc4F)n(C)c(=O)c(C)c32)c1 [Trametinib] (partner 0.02 µM) it is 0.513; for `COCC1(CO)C(=O)C2CCN1CC2` (stereo unspecified) [PRIMA-1MET] + Nc1ncn([C@H]2C[C@H](O)[C@@H](CO)O2)c(=O)n1 [Decitabine] (partner 2 µM) it is 0.399.

Staying with this experiment, now noted: first compound 6.325 µM.
Compound `COCC1(CO)C(=O)C2CCN1CC2` (stereo unspecified) [PRIMA-1MET] + COc1cc2c(Oc3ccc(NC(=O)C4(C(=O)Nc5ccc(F)cc5)CC4)cc3F)ccnc2cc1OCCCN1CCOCC1 [Foretinib] (partner 0.25 µM) returned a relative viability of 0.979.
For the compound `COCC1(CO)C(=O)C2CCN1CC2` (stereo unspecified) [PRIMA-1MET] + Nc1nc2[nH]cc(CCc3ccc(C(=O)N[C@@H](CCC(=O)O)C(=O)O)cc3)c2c(=O)[nH]1 [Pemetrexed] (partner 0.2 µM), the relative viability is 0.768.
The compound `COCC1(CO)C(=O)C2CCN1CC2` (stereo unspecified) [PRIMA-1MET] + CC(=O)Nc1cccc(-n2c(=O)n(C3CC3)c(=O)c3c(Nc4ccc(I)cc4F)n(C)c(=O)c(C)c32)c1 [Trametinib] (partner 0.02 µM) displayed a relative viability of 0.817.
`COCC1(CO)C(=O)C2CCN1CC2` (stereo unspecified) [PRIMA-1MET] + Nc1ncn([C@H]2C[C@H](O)[C@@H](CO)O2)c(=O)n1 [Decitabine] (partner 2 µM): the relative viability was determined as 0.668.

Staying with this experiment, now noted: first compound 20 µM.
In the case of `COCC1(CO)C(=O)C2CCN1CC2` (stereo unspecified) [PRIMA-1MET] + COc1cc2c(Oc3ccc(NC(=O)C4(C(=O)Nc5ccc(F)cc5)CC4)cc3F)ccnc2cc1OCCCN1CCOCC1 [Foretinib] (partner 0.25 µM), the relative viability stood at 1.02.
`COCC1(CO)C(=O)C2CCN1CC2` (stereo unspecified) [PRIMA-1MET] + Nc1nc2[nH]cc(CCc3ccc(C(=O)N[C@@H](CCC(=O)O)C(=O)O)cc3)c2c(=O)[nH]1 [Pemetrexed] (partner 0.2 µM) had a relative viability of 0.801.
Compound `COCC1(CO)C(=O)C2CCN1CC2` (stereo unspecified) [PRIMA-1MET] + CC(=O)Nc1cccc(-n2c(=O)n(C3CC3)c(=O)c3c(Nc4ccc(I)cc4F)n(C)c(=O)c(C)c32)c1 [Trametinib] (partner 0.02 µM) had a relative viability of 0.749.
